Here are results for eight compounds from patent US8022079B2, “Methods of modulating PPAR gamma-type receptors” (Galderma Research & Development, priority 2003, dated 2011).

The target of one assay is T1, PPARγ (Homo sapiens, UniProt P37231).
T1 sequence (P37231 238-505 limits assumed): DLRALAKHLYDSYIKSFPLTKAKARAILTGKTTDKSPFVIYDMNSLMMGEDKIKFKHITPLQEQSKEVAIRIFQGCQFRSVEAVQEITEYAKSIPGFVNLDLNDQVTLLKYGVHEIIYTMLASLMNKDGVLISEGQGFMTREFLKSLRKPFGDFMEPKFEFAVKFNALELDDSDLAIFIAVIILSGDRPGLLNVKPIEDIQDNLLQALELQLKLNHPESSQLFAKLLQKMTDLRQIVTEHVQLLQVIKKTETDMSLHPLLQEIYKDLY
Nature of the assay: Crossover-curve PPAR transactivation test (PPARγ). The following applies: HeLN cells stably transfected with ERE-βGlob-Luc-SV-Neo and Gal-hPPARγ; Schild regression against reference agonist; n.a. means not active; read-out: PPARγ Kd app. The class given is cell-based. On the procedure: (§1) The activation of PPAR receptors with an agonist (activator) in HeLN cells leads to the expression of a reporter gene, luciferase, which, in the presence of a substrate, generates light. The modulation of the PPAR receptors is measured by quantifying the luminescence produced after incubating the cells in the presence of a reference agonist. The ligands displace the agonist from its site. The measurement of the activity is performed by quantifying the light produced. This measurement makes it possible to determine the modulatory activity of the compounds according to the invention by determining the constant that represents the affinity of the molecule for the PPAR receptor. Since this value can fluctuate depending on the basal activity and the expression of the receptor, it is referred to as Kd apparent (KdApp in nM).
(§2) To determine this constant, “crossover curves” of the test product against a reference agonist are performed in a 96-well plate: 10 concentrations of the test product plus a concentration 0 are arranged in a line, and 7 concentrations of the agonist plus a concentration 0 are arranged in a column. This represents 88 measurement points for 1 product and 1 receptor. The remaining 8 wells are used for repeatability controls.
(§3) Measurements are also taken for total agonist controls with the same products.
(§4) The HeLN cell lines used are stable transfectants containing the plasmids ERE-βGlob-Luc-SV-Neo (reporter gene) and PPAR (α, δ, γ) Gal-hPPAR. These cells are inoculated into 96-well plates at a rate of 10 000 cells per well in 100 μl of DMEM medium without phenol red and supplemented with 10% of defatted calf serum. The plates are then incubated at 37° C. and 7% CO2 for 16 hours.
(§5) The various dilutions of the test products and of the reference ligand are added at a rate of 5 μl per well. The plates are then incubated for 18 hours at 37° C. and 7% CO2. The culture medium is removed by turning over and 100 μl of a 1:1 PBS/luciferine mixture are added to each well. After 5 minutes, the plates are read by the luminescence detector.

Another assay addresses T2, PPARα (Homo sapiens, UniProt Q07869).
T2 sequence (Q07869 200-468 limits assumed): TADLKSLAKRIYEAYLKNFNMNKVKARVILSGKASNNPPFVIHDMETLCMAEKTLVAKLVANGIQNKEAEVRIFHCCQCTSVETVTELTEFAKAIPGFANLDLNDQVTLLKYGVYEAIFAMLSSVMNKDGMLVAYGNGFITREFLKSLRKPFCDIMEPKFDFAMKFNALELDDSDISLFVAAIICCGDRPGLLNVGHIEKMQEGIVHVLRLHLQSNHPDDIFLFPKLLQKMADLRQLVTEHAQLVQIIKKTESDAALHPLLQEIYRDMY
Nature of the assay: Crossover-curve PPAR transactivation test (PPARα). As to conditions: HeLN cells stably transfected with ERE-βGlob-Luc-SV-Neo and Gal-hPPARα; Schild regression against reference agonist; n.a. means not active; read-out: PPARα Kd app. It counts as cell-based. Here is the method: as §1, §2, §3, §4, §5

Where a name gives a salt, the structure may show the parent alone.

With `CCCCCCCNC(=O)N(C)c1cccc(-c2ccc(CC(OCC)C(=O)O)cn2)c1` (stereo not shown) [Example 20, 2-Ethoxy-3-{6-[3-(3-heptyl-1-methylureido)phenyl]pyrid-3-yl}propanoic acid], on PPARγ, the Kd is 4 nM. `CCCCCNC(=O)N(C)c1ncc(-c2ccc(C[C@H](OCC)C(=O)O)cc2)s1` [Example 8, 2(S)-Ethoxy-3-{4-[2-(1-methyl-3-pentylureido)thiazol-5-yl]phenyl}propanoic acid]: the Kd on PPARγ turned out to be 30 nM. In the case of `CCCCCCCC(=O)N(C)Cc1ccc(-c2ccc(C[C@H](OCC)C(=O)O)cc2)s1` [Example 6, 2(S)-Ethoxy-3-(4-{5-[(methyloctanoylamino)methyl]thiophen-2-yl}phenyl)propanoic acid], the results for the Kd on PPARα and on PPARγ were 1000 nM and 2 nM, respectively. Taken in the same sequence, the figures for `CCCCCCCNC(=O)N(C)c1cccc(-c2ccc(C[C@H](OCC)C(=O)O)cc2)n1` [Example 10, 2(S)-Ethoxy-3-{4-[6-(3-heptyl-1-methylureido)pyrid-2-yl]phenyl}propanoic acid hydrochloride] were 120 nM and 0.5 nM.

With `CCCCCC(=O)N(C)Cc1cc(-c2ccc(C[C@H](Nc3ccccc3C(=O)c3ccccc3)C(=O)O)cc2)cs1` [Example 15, 2(S)-(2-Benzoylphenylamino)-3-(4-{5-[(hexanoylmethylamino)methyl]thiophen-3-yl}phenyl)propanoic acid], the Kd amounted to 2000 nM at PPARα and 1000 nM at PPARγ. For the compound `CCCCCCCNC(=O)N(C)c1ncc(-c2ccc(C[C@H](OCC)C(=O)O)cc2)s1` [Example 7, 2(S)-Ethoxy-3-{4-[2-(3-heptyl-1-methylureido)thiazol-5-yl]phenyl}propanoic acid], the Kd at PPARα was 2000 nM; at PPARγ it was 60 nM. On to `CCCCCCCC(=O)N(C)Cc1cc(-c2ccc(C[C@H](OCC)C(=O)O)cc2)cs1` [Example 5, 2(S)-Ethoxy-3-(4-{5-[(methyloctanoylamino)methyl]thiophen-3-yl}phenyl)propanoic acid], for which the Kd on PPARα turned out to be 4000 nM; on PPARγ, 0.06 nM. Take “N-{3-[5-(2,4-dioxothiazolidin-5-ylmethyl)pyrid-2-yl]benzyl}-N-methyloctanoylamide [Example 4]”: the Kd at PPARγ amounted to 500 nM.
